# According to US20230271923A1, “IMAGING AND TARGETING PROGRAMMED DEATH LIGAND-1 (PD-LI) EXPRESSION” (The Johns Hopkins University, priority 2020, published 2023):
# pIC50, pKd: −log10 of the molar value. Where a SMILES comes first, the peptide text is derived from it. Bridges are numbered along the chain shown (N, C = ends). [ ]: non-standard residue; d: D form. The star is where a group is joined. Trp(1-CH2COOH) = N[C@@H](Cc1cn(CC(=O)O)c2ccccc12)C(=O)O; X1 = O=C(O)CN1CCN(CC(=O)O)CCN(Cc2ccc(NC(=S)*)cc2)CC1; Hyp = O=C(O)[C@@H]1C[C@@H](O)CN1; NMeNle = CCCC[C@H](NC)C(=O)O; NMeA = CN[C@@H](C)C(=O)O
# Columns and labels:
# [1] = circulating half-life; cited from earlier work
# PD-L1 = PD-L1 (Homo sapiens, UniProt Q9NZQ7); conditions: cited from earlier work
# LOX-IMVI tumors = experiment: aPD-L1 mAb dosing studies, accessible PD-L1 levels by [^18F]DK222 uptake; format: in vivo, NSG mice; conditions: for reduction in [^18F]DK222 uptake in tumors vs vehicle: 24 hour before tracer, ex vivo
# Experimental: To confirm the in vitro observations in vivo, NSG mice bearing LOX-IMVI tumors were treated with a single dose of 0.3 or 20 mg/kg of Atezolizumab, administered intravenously as a bolus, 24 hour before [^18F]DK222 injection (FIG. 5B, FIG. 5C and FIG. 5D). […] Importantly, there was a modest reduction in signal intensity when a low 0.3 mg/kg dose of Atezolizumab was used.
# The aim of this experiment was to evaluate the potential of [^18F]DK222 to detect the heterogeneity in binding of different mAbs, thus proving in principle that it can be used to guide the choice between the multiple mAbs available for treatment. […] Separate groups of animals were injected with a single 1 mg/kg dose of (only) one of these mAbs, and after either 24 or 96 hours, each group was injected with [^18F]DK222, imaged, or sacrificed and the [^18F]DK222 signal was quantified (FIG. 6A). The difference in lower [^18F]DK222 signal, at 24 hours between any PD-L1 mAb vs Nivolumab constitutes the saturation binding of the PD-L1 mAb. On the other hand, the higher [^18F]DK222 signal at 96 hours versus that at 24 hours represents loss of the mAb from its binding site, making more PD-L1 accessible to [^18F]DK222. The experiment was repeated in two different tumor models: LOXIMVI and MDAMB231.
# 1.3.17 aPD-L1 mAb dosing studies. To determine the effect of antibody dose on accessible PD-L1 levels in the tumor, LOX-IMVI tumor-bearing mice were treated with a single intravenous bolus dose of Atezolizumab (0.3 or 20 mg/Kg) and 24 hours later mice were used for imaging (n=3-4) and biodistribution (n=6-8) studies.
# Anti PD-1 antibody Nivolumab (1 mg/kg) and saline were used as controls. Mice treated for 24 h with therapeutic mAbs, or saline as a control, were injected with 200 μCi of [^18F]DK222 in 200 μL of saline intravenously, and PET images were acquired 1 hour after the injection of the radiotracer. Due to the many number of groups and mice involved, saline and Nivolumab-treated controls were included in every experiment, and data from multiple experiments were pooled. Study was repeated in MDAMB231 tumor-bearing mice with only biodistribution measurements.
# [2] = test system: PD-L1 levels in melanoma cells; experiment: effect of IFNγ treatment on PD-L1 levels by flow cytometry; format: cell-based, human
# Experimental: First, the effect of adaptive immune response on the PD-L1 expression in melanoma cells was investigated by assessing changes in PD-L1 levels induced by IFNγ treatment. LOX-IMVI, A375, and MeWO melanoma cells treated with IFNγ were analyzed for changes in PD-L1 levels.
# 1.3.8 Detection of PD-L1 expression by flow cytometry. Cells were evaluated for PD-L1 surface expression by direct staining of 2×10^5 cells in 100 μL PBS with Cy5-Atezolizumab, for 30 min at 4° C. Cy5-Atezolizumab was prepared as described previously. Kumar et al., 2019. Cells were then washed and analyzed for mean fluorescence intensity (MFI) by flow cytometry. Adherent cells were detached using enzyme-free cell dissociation buffer (Thermo Fisher Scientific, Waltham, Mass.). 1.3.9 In vitro binding assays with [^18F]DK222. In vitro binding of [^18F]DK222 to hPD-L1 MDAMB231, MeWo, A375, Sum149, and CHO cells was determined by incubating 1×10^6 cells with approximately […] of [^18F]DK222 in the presence, or absence, of 1 μM of DK222 or 60 nM mAbs for 30 min at 4° C. After incubation, cells were washed three times with ice cold PBS containing 0.1% Tween20 and counted on an automated gamma counter (1282 Compugamma CS, Pharmacia/LKBNuclear, Inc., Gaithersburg, Md.). […] All cell radioactivity uptake studies were performed in quadruplicate for each cell line and repeated three times.
# hPD-L1/CHO xenografts = conditions: in vivo
# A375 melanoma xenografts = experiment: aPD-1 mAb dosing study, [^18F]DK222 uptake in A375 tumors; format: in vivo; conditions: huPBMC mice, single dose aPD-1 mAb 12 mg/kg, one week
# Experimental: A humanized mouse model was used to quantify the differences in tumor PD-L1 levels as a measure of adaptive immune response to treatment with different aPD-1 mAbs. NSG mice humanized with PBMCs (huPBMC) bearing A375 melanoma xenografts were treated with a single dose of aPD-1 mAbs (12 mg/kg). Following one week of treatment, tumor PD-L1 levels were measured by [^18F]DK222-PET and by ex vivo counting 24 hours later (FIG. 4A). As controls, tumor-bearing huPBMC mice treated with saline and NSG mice treated with Pembrolizumab and Nivolumab were included.
# 1.3.14 aPD-1 mAb dosing studies. huPBMC mice acquired from JAX labs were implanted subcutaneously with 2×10^6 A375 cells in the rostral end. Seven days after cell inoculation (average tumor volume=80±15 mm^3), mice were randomized and treated with a single 12 mg/kg dose of Nivolumab or Pembrolizumab injected intravenously (n=9/group). huPBMC mice treated with saline (n=4-5/group). or NSG mice treated with 12 mg/kg dose of Nivolumab or Pembrolizumab were used as controls. Seven days following treatment, [^18F]DK222 PET scans were acquired on at least 3-5 mice per group. […]
# 1.3.15 Flow cytometry analysis. […] Cells were counted and 1×10^6 cells were resuspended in 100 μL Live/Dead aqua solution (ThermoFisher #L34965, 2 μL reconstituted with 2 mL PBS) in a 96 well plate. […]
# PD-L1 binding to PD-1 = PD-L1 binding to PD-1 (Homo sapiens, UniProt Q9NZQ7); experiment: competitive PD-1:PD-L1 inhibition assay (HTRF PD1/PD-L1 binding assay)
# Experimental: To modify DK221 for radiolabeling, a bifunctional chelator, e.g., NCS-MP-NODA, was conjugated to the free lysine amine to generate DK222. The NODA chelator was used for radiofluorination to produce [^18F]DK222, as well as a non-radioactive analog [^19F]DK222. (FIG. 1A, FIG. 10 and FIG. 11). A competitive PD-1:PD-L1 inhibition assay was performed to characterize binding affinity of the peptide analogs to PD-L1. […] [^18F]Fluoride-radiolabeling of peptides and small molecules by aluminum fluoride (AlF) method is gaining attention due to the ease of synthesis and the potential to retain the hydrophilicity of the binding moiety. McBride et al., 2010; Kumar et al., 2018. The radiolabeled analog, [^18F]DK222 was synthesized by AlF method in good radiochemical yields (34.85±1.7%, n=62), in vitro stability, and moderate specific activity of 284±56 mCi/μmol (10.51±2.07 GBq/μmol, n=25). […] (FIG. 12, FIG. 13 and FIG. 14).
# PD-L1 binding to PD-1, sequence (Q9NZQ7 19-238 limits assumed): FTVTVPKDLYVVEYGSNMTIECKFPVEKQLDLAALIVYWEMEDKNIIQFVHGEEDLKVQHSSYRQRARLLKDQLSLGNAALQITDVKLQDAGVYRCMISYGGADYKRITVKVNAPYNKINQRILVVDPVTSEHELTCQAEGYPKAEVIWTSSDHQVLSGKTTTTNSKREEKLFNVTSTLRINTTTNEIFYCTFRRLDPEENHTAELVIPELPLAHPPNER
# PD-L1, sequence (Q9NZQ7 19-290): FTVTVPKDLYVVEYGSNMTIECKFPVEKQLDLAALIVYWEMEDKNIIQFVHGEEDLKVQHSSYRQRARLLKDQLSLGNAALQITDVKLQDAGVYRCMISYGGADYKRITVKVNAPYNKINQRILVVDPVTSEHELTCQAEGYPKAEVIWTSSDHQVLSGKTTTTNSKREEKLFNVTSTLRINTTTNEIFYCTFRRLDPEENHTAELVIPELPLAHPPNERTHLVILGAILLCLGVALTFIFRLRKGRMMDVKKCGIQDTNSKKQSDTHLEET
compound,measurement,setting,value
"Atezolizumab: aPD-L1 mAb, isotype IgG1κ",t1/2,[1],27 days
same,pKd,PD-L1,9.40
same,reduction in [^18F]DK222 uptake in tumors vs vehicle,LOX-IMVI tumors; 0.3 mg/kg single i.v. dose,32%
same,reduction in [^18F]DK222 uptake in tumors vs vehicle,LOX-IMVI tumors; 20 mg/kg single i.v. dose,89%
"Avelumab: aPD-L1 mAb, IgG1λ",t1/2,[1],6.1 days
IFNγ: cytokine used to treat melanoma cells to induce PD-L1,increase in PD-L1 levels,[2]; A375 cells,four-fold
same,increase in PD-L1 levels,[2]; LOX-IMVI cells,two
same,change in PD-L1 levels,[2]; MeWo cells,No differences
Durvalumab: aPD-L1 mAb,t1/2,[1],18 days
same,pKd,PD-L1,10.66
same,accessible PD-L1 levels reduced,"LOX-IMVI tumors; 1 mg/kg mAb, LOX-IMVI tumors, 24 h and 96 h",≥ 70%
CCCC[C@H]1C(=O)N(C)[C@@H](CCCC)C(=O)N[C@@H](CCCCNC(=O)c2ccc([18F])nc2)C(=O)N[C@H](C(=O)NCC(N)=O)CSCC(=O)N[C@@H](Cc2ccc(O)cc2)C(=O)N(C)[C@@H](C)C(=O)N[C@@H](CC(N)=O)C(=O)N2CCC[C@H]2C(=O)N[C@@H](Cc2cnc[nH]2)C(=O)N[C@@H](CCC(=O)O)C(=O)N2C[C@H](O)C[C@H]2C(=O)N[C@@H](Cc2c[nH]c3ccccc23)C(=O)N[C@@H](CO)C(=O)N[C@@H](Cc2cn(CC(=O)O)c3ccccc23)C(=O)N1C [[^18F]DK221-Py],PET image contrast,hPD-L1/CHO xenografts,poor image contrast
Nivolumab: aPD-1 mAb [reference compound],increase in median [^18F]DK222 uptake compared to NSG mice,A375 melanoma xenografts,148%
same,mean LOX-IMVI tumor [^18F]DK222 uptake,"LOX-IMVI tumors; 1 mg/kg mAb, 24 hours",approximately 20 % ID/g
CCCC[C@H]1C(=O)N(C)[C@@H](CCCC)C(=O)N[C@@H](CCCCNC(=S)Nc2ccc(CN3CCN(CC(=O)O)CCN(CC(=O)O)CC3)cc2)C(=O)N[C@H](C(=O)NCC(N)=O)CSCC(=O)N[C@@H](Cc2ccc(O)cc2)C(=O)N(C)[C@@H](C)C(=O)N[C@@H](CC(N)=O)C(=O)N2CCC[C@H]2C(=O)N[C@@H](Cc2cnc[nH]2)C(=O)N[C@@H](CCC(=O)O)C(=O)N2C[C@H](O)C[C@H]2C(=O)N[C@@H](Cc2c[nH]c3ccccc23)C(=O)N[C@@H](CO)C(=O)N[C@@H](Cc2cn(CC(=O)O)c3ccccc23)C(=O)N1C [DK222] ({CH2CO}-Y[NMeA]NPHE[Hyp]WS[Trp(1-CH2COOH)][NMeNle][NMeNle]K(X1)CG-NH2; thioether N-14),pIC50,PD-L1 binding to PD-1,7.55
same,inhibit PD1:PD-L1 interaction,PD-L1 binding to PD-1; protein-based assay,at nanomolar concentrations
Pembrolizumab: aPD-1 mAb [reference compound],increase in median [^18F]DK222 uptake compared to NSG mice,A375 melanoma xenografts,85%
